Reference: ChEMBL document CHEMBL1130611, “Synthesis and antibacterial activity of 2-alkoxy penems” (1998)

Legend:
[1] = test system: Bacillus subtilis; test: Compound was tested in vitro for antibacterial activity against Bacillus subtilis.; format: functional
[2] = test system: Enterococcus faecalis; test: Compound was tested in vitro for antibacterial activity against Enterococcus faecalis.; format: functional
[3] = test system: Escherichia coli; test: Compound was tested in vitro for antibacterial activity against Escherichia coli.; format: functional
[4] = test system: Enterobacter; test: Compound was tested in vitro for antibacterial activity against Enterobacter.; format: functional
[5] = Compound was tested in vitro for inhibition of gram negative organisms.; format: functional; settings: Bacteria
[6] = Compound was tested in vitro for inhibition of gram positive organisms.; format: functional; settings: Bacteria
[7] = test system: Klebsiella; test: Compound was tested in vitro for antibacterial activity against Klebsiella.; format: functional
[8] = test system: Morganella; test: Compound was tested in vitro for antibacterial activity against Morganella.; format: functional
[9] = test system: Providencia; test: Compound was tested in vitro for antibacterial activity against Providencia.; format: functional
[10] = test system: Salmonella; test: Compound was tested in vitro for antibacterial activity against Salmonella.; format: functional
[11] = test system: Micrococcus luteus; test: Compound was tested in vitro for antibacterial activity against Sarcina lutea.; format: functional, sarcinea lutea
[12] = test system: Serratia; test: Compound was tested in vitro for antibacterial activity against Serratia.; format: functional
[13] = test system: Staphylococcus; test: Compound was tested in vitro for antibacterial activity against Staphylococcus.; format: functional

MIC [1]	MIC [2]	MIC [3]	MIC [4]	MIC [5]	MIC [6]	MIC [7]	MIC [8]	MIC [9]	MIC [10]	MIC [11]	MIC [12]	MIC [13]	SMILES
1 µg/mL	64 µg/mL	6.62 µg/mL	10.1 µg/mL	8.3 µg/mL	2.07 µg/mL	4.92 µg/mL	16 µg/mL	27.9 µg/mL	4 µg/mL	0.5 µg/mL	16 µg/mL	1.57 µg/mL	C[C@@H](O)[C@H]1C(=O)N2C(C(=O)[O-])=C(OCCOC(N)=O)S[C@H]12.[Na+]
				3.6 µg/mL	0.2 µg/mL								C[C@@H](O)[C@H]1C(=O)N2C(C(=O)[O-])=C(SCCN)S[C@H]12.[Na+]
1 µg/mL	64 µg/mL	6.82 µg/mL	≥ 24.2 µg/mL	12.1 µg/mL	2.8 µg/mL	5.04 µg/mL	45.3 µg/mL	39.4 µg/mL	4.6 µg/mL	1 µg/mL	≥ 22.6 µg/mL	3.12 µg/mL	CCOC1=C(C(=O)[O-])N2C(=O)[C@H]([C@@H](C)O)[C@H]2S1.[Na+]
1 µg/mL	32 µg/mL	14.4 µg/mL	≥ 73.5 µg/mL	31.6 µg/mL	2.44 µg/mL	20.2 µg/mL	64 µg/mL	≥ 64 µg/mL	10.6 µg/mL	1 µg/mL	≥ 87.1 µg/mL	1.66 µg/mL	CCCOC1=C(C(=O)[O-])N2C(=O)[C@H]([C@@H](C)O)[C@H]2S1.[Na+]
1 µg/mL	32 µg/mL	≥ 25.9 µg/mL	≥ 128 µg/mL	53 µg/mL	2.26 µg/mL	≥ 32 µg/mL	≥ 90.5 µg/mL	≥ 80.6 µg/mL	≥ 36.8 µg/mL	1 µg/mL	≥ 128 µg/mL	1.51 µg/mL	CCCCOC1=C(C(=O)[O-])N2C(=O)[C@H]([C@@H](C)O)[C@H]2S1.[Na+]
				0.7 µg/mL	0.1 µg/mL								CCSC1=C(C(=O)[O-])N2C(=O)[C@H]([C@@H](C)O)[C@H]2S1.[Na+]
8 µg/mL	45.3 µg/mL	≥ 128 µg/mL	≥ 128 µg/mL	≥ 128 µg/mL	27.3 µg/mL	≥ 128 µg/mL	≥ 128 µg/mL	≥ 128 µg/mL	≥ 128 µg/mL	32 µg/mL	≥ 128 µg/mL	27.4 µg/mL	C[C@@H](O)[C@H]1C(=O)N2C(C(=O)[O-])=C(OCCN)S[C@H]12.[Na+]
1.41 µg/mL	32 µg/mL	10.4 µg/mL	24.2 µg/mL	16.6 µg/mL	3.2 µg/mL	8.98 µg/mL	45.3 µg/mL	39.4 µg/mL	6.96 µg/mL	2 µg/mL	29.6 µg/mL	1.51 µg/mL	COC1=C(C(=O)[O-])N2C(=O)[C@H]([C@@H](C)O)[C@H]2S1.[Na+]
				0.5 µg/mL	0.2 µg/mL								C[C@@H](O)[C@H]1C(=O)N2C(C(=O)[O-])=C(SCCOC(N)=O)S[C@H]12.[Na+]
